Data reported in US20260174721A1, “AGENT FOR RESTORING METAL HOMEOSTASIS” (Oxford Antibiotic Group GmbH, priority 2022, published 2026).

What was measured:
[1] = test system: transgenic C. elegans strain NL5901; assay: α-synuclein test system: reduction of α-synuclein-GFP expression in transgenic C. elegans strain NL5901 (Parkinson testing); format: in vivo, Caenorhabditis elegans; conditions: NL5901, GFP readout 24 to 48 hours, tested at 1 mg/ml, 100 μg/ml, 10 μg/ml, — = no effect even at 1 mg/ml; for minimal effective concentration: Caenorhabditis elegans, read-out: Parkinson: concentration range in which a reduction in α-synuclein expression was detectable
Protocol: (§1) The same substances as above were tested in a 96-well procedure in the initially mentioned screening assay using the nematode Caenorhabditis elegans (Pretsch et al., see above) in a standardized α-synuclein test system using the transgenic C. elegans strain NL5901 for their potential suitability as an agent for treating Parkinson's disease. This worm strain expresses human α-synuclein bound to green fluorescent protein (GFP) in all muscle cells. GFP labeling allows a direct detection of expressed protein levels using a multiplate reader for 24 to 48 hours.
(§2) For this purpose, the substances were again tested at concentrations of 1 mg/ml, 100 μg/ml, and 10 μg/ml, but this time in comparison to the initially mentioned Parkinson therapeutic agent levodopa as a control.

Caenorhabditis elegans = assay: C. elegans nematode assay, overall rating over the Alzheimer and Parkinson tests; format: in vivo; conditions: for minimal effective concentration: Caenorhabditis elegans, read-out: Score
Protocol: The substances (1) to (41) and (101) to (108), prepared in the above synthesis examples or purchased, were tested for their potential suitability as an agent for treating Alzheimer's disease in a 96-well procedure in the initially mentioned screening assay using the nematode Caenorhabditis elegans (Pretsch et al., see above) in a standardized β-amyloid test system using the transgenic C. elegans strain CL2659. For this purpose, stage L3 worm larvae were used at a density of 10-20 worms per well. The expression of β-amyloid in the muscle cells was induced by increasing the temperature, and the associated paralysis was recorded at regular intervals until the end of the test after 48 hours.
(§3) For this purpose, the above substances were tested at concentrations of 1 mg/ml, 100 μg/ml, and 10 μg/ml in comparison with quercetin as a […] control.
as §1, §2

[2] = test system: transgenic C. elegans strain CL2659; assay: β-amyloid test system: delay of paralysis in transgenic C. elegans strain CL2659 (Alzheimer testing); format: in vivo, Caenorhabditis elegans; conditions: CL2659 stage L3 larvae, 48 hours, tested at 1 mg/ml, 100 μg/ml, 10 μg/ml, — = no effect even at 1 mg/ml; for minimal effective concentration: Caenorhabditis elegans, read-out: Alzheimer: concentration range in which a delay in paralysis was observed
Protocol: For this purpose, stage L3 worm larvae were used at a density of 10-20 worms per well. The expression of β-amyloid in the muscle cells was induced by increasing the temperature, and the associated paralysis was recorded at regular intervals until the end of the test after 48 hours.
as §3

mouse test model = conditions: Parkinson's disease; cited from earlier work
metallothioneins = conditions: C. elegans nematode assay; cited from earlier work
[3] = rating from the effective concentration in both tests

Structure (SMILES)	minimal effective concentration [1] [µg/mL]	minimal effective concentration (Caenorhabditis elegans; [3]) [µg/mL]	minimal effective concentration [2] [µg/mL]	further results
O=C(CC(=O)N1CCNCC1)NC12CC3CC(CC(C3)C1)C2 [(20), N-adamantan-1-yl-N′-piperazine malonic acid diamide]	> 10	10 to 100	> 10	
NCCCC(=O)N1CCN(C(=O)CC(=O)NC23CC4CC(CC(C4)C2)C3)CC1 [(21), N-adamantan-1-yl-N′-(4-(4-aminobutyryl)piperazine)malonic acid diamide]	> 10	10 to 100	> 10	
NCCCNC(=O)CC(=O)N1CCCC2CCCCC21 (centres unmarked) [(24), N-(3-aminopropyl)-N′-decahydroquinoline malonic acid diamide]	> 10	10 to 100	> 10	
NCCCNC(=O)CC(=O)N1CCC2CCCCC2C1 (centres unmarked) [(25), N-(3-aminopropyl)-N′-decahydroisoquinoline malonic acid diamide]	> 10	10 to 100	> 10	
CC1(C)C2CCC(CNC(=O)CC(=O)NCCCN)C1C2 (centres unmarked) [(26), N-(3-aminopropyl)-N′-(6,6-dimethylbicyclo[3.1.1]heptane-2-ylmethyl)malonic acid diamide]	> 10	10 to 100	> 10	
CN(C)CCCNC(=O)CC(=O)OC12CC3CC(CC(C3)C1)C2 [(27), malonic acid adamantan-1-yl ester N-(3-dimethylaminopropyl)amide]	> 10	10 to 100	> 10	
O=C(CC(=O)OC12CC3CC(CC(C3)C1)C2)NCCCN1CCOCC1 [(28), malonic acid adamantan-1-yl ester N-(3-morpholinopropyl)amide]	> 10	10 to 100	> 10	
CC12CC3CC(C)(C1)CC(NC(=O)CC(=O)O)(C3)C2 [(32), malonic acid N-(3,5-dimethyl)adamantan-1-yl amide]	> 10	10 to 100	> 10	
CC12CC3CC(C)(C1)CC(NC(=O)CC(=O)NCCCN)(C3)C2 [(33), N-(3,5-dimethyladamantan-1-yl)-N′-(3-aminopropyl)malonic acid diamide]	> 10	10 to 100	> 10	
CC12CC3CC(C)(C1)CC(NC(=O)CC(=O)NCCCN1CCOCC1)(C3)C2 [(34), N-(3,5-dimethyladamantan-1-yl)-N′-(3-morpholinopropyl)malonic acid diamide]	> 10	10 to 100	> 10	
COc1ccccc1N1CCN(C(=O)CC(=O)NC23CC4CC(C)(CC(C)(C4)C2)C3)CC1 [(38), N-(3,5-dimethyladamantan-1-yl)-N′-4-(2-methoxyphenyl)piperazine malonic acid diamide]				Parkinson: concentration range in which a reduction in α-synuclein expression was detectable [1]: >100 µg/mL; Score (Caenorhabditis elegans; [3]): ++ (a compound that is already effective at a concentration >10 μg/ml and therefore rated “++”); Alzheimer: concentration range in which a delay in paralysis was observed [2]: >100 µg/mL
CC12CC3CC(C)(C1)CC(NC(=O)CC(=O)N1CCN(CC(=O)N4CCOCC4)CC1)(C3)C2 [(41), N-(3,5-dimethyladamantan-1-yl)-N′-4-(2-morpholino-2-oxoethyl)piperazine malonic acid diamide]	> 10	10 to 100	> 10	concentration from which the compound was effective (Caenorhabditis elegans; both tests): > 10 µg/mL
CC(C)(S)[C@@H](N)C(=O)O [D-penicillamine, 2-amino-3-mercapto-3-methyl butanoic acid]				neuroprotective effect / neurotoxicity (mouse test model): did not show any neuroprotective effect
Oc1c(I)cc(Cl)c2cccnc12 [clioquinol, 5-chloro-7-iodoquinolin-8-ol]				body's own biosynthesis of metallothioneins (metallothioneins): prolongation of the body's own biosynthesis of metallothioneins
CCN(CC)C(=S)S [diethyl dithiocarbamate, diethyldithiocarbamate]				neuroprotective effect / neurotoxicity (mouse test model): higher neurotoxicity
Cc1cc(O)c2c(c1)C(=O)c1cc(O)cc(O)c1C2=O [emodin, 1,3,8-trihydroxy-6-methylanthracene-9,10-dione]				body's own biosynthesis of metallothioneins (metallothioneins): prolongation of the body's own biosynthesis of metallothioneins
